In general, melting point refers to the temperature of the solid-liquid transition. For orientation: IC50 means the midpoint of a concentration-inhibition curve. The low end stands for higher potency, the high end for lower potency.

Some results are limits rather than exact numbers.

The results in this text go back to patent US7214712B2, “Isophthalic acid derivatives as matrix metalloproteinase inhibitors” (Warner-Lambert Company, priority 2001, dated 2007).

Series [1] has as its target T1, MMP-1FL (full length interstitial collagenase) (Homo sapiens, UniProt P03956).
T1 sequence (P03956 100-469): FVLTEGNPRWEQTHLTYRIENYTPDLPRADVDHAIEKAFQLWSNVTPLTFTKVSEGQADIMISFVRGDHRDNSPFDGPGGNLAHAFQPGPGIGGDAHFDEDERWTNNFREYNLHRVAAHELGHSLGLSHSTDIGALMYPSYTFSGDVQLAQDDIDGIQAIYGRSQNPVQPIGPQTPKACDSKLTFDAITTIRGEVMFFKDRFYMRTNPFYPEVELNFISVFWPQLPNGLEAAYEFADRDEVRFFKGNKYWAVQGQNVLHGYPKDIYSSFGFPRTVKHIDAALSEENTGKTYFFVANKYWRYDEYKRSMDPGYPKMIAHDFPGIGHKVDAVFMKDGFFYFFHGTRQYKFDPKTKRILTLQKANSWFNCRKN
The series can be described thus: Thiopeptolide substrate hydrolysis assay, MMP-1FL. The format is biochemical. Conditions: HEPES pH 7.0, 22° C. The text has this:
Several representative compounds have been evaluated for their ability to inhibit various matrix metalloproteinase enzymes.

Series [2] concerns the target MMP-3CD (catalytic domain of stromelysin-1) (Homo sapiens, UniProt P08254). The series can be described thus: Thiopeptolide substrate hydrolysis assay, MMP-3CD. Conditions: 50 mM MES pH 6.0. The series is classed as biochemical. On the procedure:
It should be appreciated that the assay buffer used with MMP-3CD was 50 mM N-morpholinoethanesulfonate (“MES”) at pH 6.0 rather than the HEPES buffer at pH 7.0 described above.

Series [3] has as its target MMP-13CD (catalytic domain of collagenase-3) (Homo sapiens, UniProt P45452). The series can be described thus: Thiopeptolide substrate hydrolysis assay, MMP-13CD. The format is biochemical. Conditions: HEPES pH 7.0, 22° C.
Procedure: The assays measure the amount by which a test compound reduces the hydrolysis of a thiopeptolide substrate caused by a matrix metalloproteinase enzyme.
Thiopeptolide substrates show virtually no decomposition or hydrolysis in the absence of a matrix metalloproteinase enzyme. A typical thiopeptolide substrate commonly utilized for assays is Ac-Pro-Leu-Gly-thioester-Leu-Leu-Gly-OEt. A 100-μL assay mixture will contain 50 mM of N-2-hydroxyethylpiperazine-N′-2-ethanesulfonic acid (“HEPES,” pH 7.0), 10 mM CaCl2, 100 μM thiopeptolide substrate, and 1 mM 5,5′-dithio-bis-(2-nitro-benzoic acid) (DTNB). […] Assays are carried out with and without matrix metalloproteinase inhibitor compounds, and the amount of hydrolysis is compared for a determination of inhibitory activity of the test compounds.

MMP-3CD (catalytic domain of stromelysin-1), sequence (P08254 100-272 limits assumed): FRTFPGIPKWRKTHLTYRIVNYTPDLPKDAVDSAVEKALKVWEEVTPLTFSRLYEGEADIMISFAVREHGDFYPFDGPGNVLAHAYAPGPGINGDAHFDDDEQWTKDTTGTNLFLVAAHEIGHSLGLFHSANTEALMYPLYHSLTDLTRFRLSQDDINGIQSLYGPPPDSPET

For the molecule `O=C(OCc1cccc(F)c1)c1cccc(C(=O)OCc2cccc(F)c2)c1` [Example 11, Isophthalic acid bis-(3-fluoro-benzyl) ester], the melting point lay within 81 to 82 °C.

As to `O=C(NCc1ccc2c(c1)OCO2)c1cccc(C(=O)NCc2ccc3c(c2)OCO3)c1` [Example 19, N,N′-Bis-1,3-benzodioxol-5-ylmethyl-isophthalamide], the IC50 in series [1] is > 100 µM.

Turning to `COc1cccc(CNC(=O)c2cccc(C(=O)NCc3cccc(OC)c3)c2)c1` [Example 30, N,N′-Bis-(3-methoxy-benzyl)-isophthalamide], the IC50 in series [1] and in series [2] was > 100 µM throughout.

Consider `COc1ccc(COC(=O)c2cccc(C(=O)OCc3ccc(OC)cc3)c2)cc1` [Example 12, Isophthalic acid bis-(4-methoxy-benzyl) ester], for which the melting point lay within 90 to 92 °C.

The molecule `O=C(OCc1ccc2c(c1)OCO2)c1cccc(C(=O)OCc2ccc3c(c2)OCO3)c1` [Example 14, Isophthalic acid bis-(1,3-benzodioxol-5-ylmethyl) ester] gave a melting point of 109 to 110 °C.

`O=C(OCc1ccc2nsnc2c1)c1cccc(C(=O)OCc2ccc3nsnc3c2)c1` [Example 3, Isophthalic acid di-(2,1,3-benzothiadiazol-5-yl)methyl ester]: the IC50 in series [1] was > 100 µM; in series [2] it was > 30 µM.

`O=C(NCc1ccc(Cl)cc1)c1cccc(C(=O)NCc2ccc(Cl)cc2)c1` [Example 10, N,N′-Bis-(4-chloro-benzyl)-isophthalamide] registered a melting point of 136 to 138 °C.

Take `O=C(NCc1ccc2c(c1)OCO2)c1cccc(C(=O)NCc2ccc3c(c2)OCO3)c1` [Example 28, N,N′-Bis-1,3-benzodioxol-5-ylmethyl-isophthalamide]: the half-maximal inhibitory concentration (IC50) in series [1] is > 100 µM.

For `O=C(NCc1cccc(F)c1)c1cccc(C(=O)NCc2cccc(F)c2)c1` [Example 17, N,N′-Bis-(3-fluoro-benzyl)-isophthalamide], the melting point was 138 to 140 °C.

As for “4-Methoxy-N,N′-bis-(4-methoxy-benzyl)-isophthalamide [Example 24]”, the IC50 was 0.28 µM in series [3], > 100 µM in series [1] and > 100 µM in series [2].

On to `COc1ccc(C(=O)OCc2ccncc2)cc1C(=O)OCc1ccncc1` [Example 5, 4-Methoxy-isophthalic acid dipyridin-4-ylmethyl ester], for which the IC50 is 0.255 µM in series [3], > 100 µM in series [1] and > 100 µM in series [2].

In turn, `COc1ccc(CNC(=O)c2cccc(C(=O)NCc3ccc(OC)cc3)c2)cc1` [Example 16, N,N′-Bis-(4-methoxy-benzyl)-isophthalamide] had a melting point of 175 to 176 °C.

Take `COc1cccc(COC(=O)c2cccc(C(=O)OCc3cccc(OC)c3)c2)c1` [Example 13, Isophthalic acid bis-(3-methoxy-benzyl) ester]: the melting point is 68 to 70 °C.

With `COc1ccc(C(=O)OCc2ccc3nsnc3c2)cc1C(=O)OCc1ccc2nsnc2c1` [Example 69, 4-Methoxy-isophthalic acid di-2,1,3-benzothiadiazol-5-ylmethyl ester], the IC50 in series [1] came to 30 µM.

As for “N,N′-Bis-(4-methoxy-benzyl)-isophthalamide [Example 39]”, the IC50 in series [3] was 2.74 µM; in series [1] it was > 100 µM; in series [2], > 100 µM.

For `O=C(NCc1cccc(Cl)c1)c1cccc(C(=O)NCc2cccc(Cl)c2)c1` [Example 18, N,N′-Bis-(3-chloro-benzyl)-isophthalamide], the melting point is 128 to 130 °C.

For `CCOc1ccc(C(=O)NCc2cccc(OC)c2)cc1C(=O)NCc1cccc(OC)c1` [Example 64, 4-Ethoxy-N′1,N″3-bis-(3-methoxy-benzyl)-isophthalamide], the half-inhibitory concentration (IC50) in series [1] and in series [2] was > 100 µM in each case.
